Here are results for 19 molecules from US20250313535A1, “ALPHA 4 BETA 7 INTEGRIN MODULATORS AND USES THEREOF” (DICE MOLECULES SV, INC., priority 2022, published 2025).

pIC50: −log10 of the molar value. A value given as a limit tells only on which side of the number the result lay.

Usually pIC50 stands for −log10 of the IC50, conventionally taken in molar units.

The target of assay [1] is α4β1 integrin (Homo sapiens (Human), UniProt P05556+P13612). The assay is described as follows: Integrin Adhesion Assay: Protocol 2 (VCAM-coated plate, Jurkat cells, CellTiter GLO readout). In kind it is cell-based. To be noted: determined by at least one of the assays described (protocol not specified). Summed up: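 Jurkat cells (2×10^6 per mL) adhered to VCAM-coated (0.1 ug/well), BSA-blocked wells with compound (1% DMSO) for 1 h at 37° C in 10 mM HEPES, 150 mM NaCl, 1 mM MnCl2, 0.1 mM CaCl2. After four washes, bound cells were quantified by CellTiter-Glo luminescence. Percent inhibition versus DMSO and control-compound wells was fitted to a 4-parameter curve.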
Background: ATP-based viability assays read luminescence as a measure of living cells.

Assay [2] addresses α4β7 integrin (Homo sapiens (Human), UniProt P13612+P26010). The assay is described as follows: Integrin Adhesion Assay: Protocol 1 (MAdCAM-coated plate, RPMI-8866 cells, CellTiter GLO readout). To be noted: integrin adhesion assay; determined by at least one of the assays described (protocol not specified). In kind it is cell-based. The gist of the method:
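RPMI-8866 cells (2×10^6 per mL) added with compounds (1% DMSO) to MAdCAM-coated wells blocked in HEPES/NaCl buffer with 1 mM MnCl2, 0.1 mM CaCl2, 1% BSA; 1 h at 37° C, 5% CO2. After four washes, bound cells read by CellTiter GLO luminescence; % inhibition vs DMSO and control wells, 4-parameter fit.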

Assay [3] concerns patients. Conditions: clinical trials; at the end of one year of treatment; cited from earlier work.

Sequence of α4β7 integrin (P13612 34-1032): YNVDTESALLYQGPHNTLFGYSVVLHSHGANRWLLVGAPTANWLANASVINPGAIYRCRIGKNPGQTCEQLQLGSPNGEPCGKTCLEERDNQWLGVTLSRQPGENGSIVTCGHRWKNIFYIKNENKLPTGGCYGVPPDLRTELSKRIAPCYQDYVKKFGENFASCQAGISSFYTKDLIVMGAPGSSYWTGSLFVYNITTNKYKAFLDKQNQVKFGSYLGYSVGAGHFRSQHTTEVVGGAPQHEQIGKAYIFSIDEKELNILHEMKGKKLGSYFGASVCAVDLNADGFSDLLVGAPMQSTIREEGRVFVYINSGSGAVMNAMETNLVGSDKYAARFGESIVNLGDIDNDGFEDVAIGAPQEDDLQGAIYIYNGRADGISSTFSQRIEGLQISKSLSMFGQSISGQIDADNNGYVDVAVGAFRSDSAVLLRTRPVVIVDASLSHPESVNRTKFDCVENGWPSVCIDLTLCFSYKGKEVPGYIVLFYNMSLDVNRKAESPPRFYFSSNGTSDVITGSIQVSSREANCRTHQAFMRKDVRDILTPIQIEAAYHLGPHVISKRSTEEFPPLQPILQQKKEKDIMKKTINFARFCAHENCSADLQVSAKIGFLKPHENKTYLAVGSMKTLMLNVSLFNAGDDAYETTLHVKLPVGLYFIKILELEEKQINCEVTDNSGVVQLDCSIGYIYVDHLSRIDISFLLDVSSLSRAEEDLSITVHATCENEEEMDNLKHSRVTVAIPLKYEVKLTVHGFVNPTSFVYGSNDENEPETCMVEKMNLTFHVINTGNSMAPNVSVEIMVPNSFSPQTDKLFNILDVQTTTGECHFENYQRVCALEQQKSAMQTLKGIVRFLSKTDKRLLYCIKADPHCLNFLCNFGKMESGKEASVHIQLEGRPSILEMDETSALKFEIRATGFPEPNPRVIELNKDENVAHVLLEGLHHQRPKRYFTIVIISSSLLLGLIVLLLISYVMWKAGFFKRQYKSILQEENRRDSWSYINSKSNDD
Sequence of α4β7 integrin (P26010 20-798): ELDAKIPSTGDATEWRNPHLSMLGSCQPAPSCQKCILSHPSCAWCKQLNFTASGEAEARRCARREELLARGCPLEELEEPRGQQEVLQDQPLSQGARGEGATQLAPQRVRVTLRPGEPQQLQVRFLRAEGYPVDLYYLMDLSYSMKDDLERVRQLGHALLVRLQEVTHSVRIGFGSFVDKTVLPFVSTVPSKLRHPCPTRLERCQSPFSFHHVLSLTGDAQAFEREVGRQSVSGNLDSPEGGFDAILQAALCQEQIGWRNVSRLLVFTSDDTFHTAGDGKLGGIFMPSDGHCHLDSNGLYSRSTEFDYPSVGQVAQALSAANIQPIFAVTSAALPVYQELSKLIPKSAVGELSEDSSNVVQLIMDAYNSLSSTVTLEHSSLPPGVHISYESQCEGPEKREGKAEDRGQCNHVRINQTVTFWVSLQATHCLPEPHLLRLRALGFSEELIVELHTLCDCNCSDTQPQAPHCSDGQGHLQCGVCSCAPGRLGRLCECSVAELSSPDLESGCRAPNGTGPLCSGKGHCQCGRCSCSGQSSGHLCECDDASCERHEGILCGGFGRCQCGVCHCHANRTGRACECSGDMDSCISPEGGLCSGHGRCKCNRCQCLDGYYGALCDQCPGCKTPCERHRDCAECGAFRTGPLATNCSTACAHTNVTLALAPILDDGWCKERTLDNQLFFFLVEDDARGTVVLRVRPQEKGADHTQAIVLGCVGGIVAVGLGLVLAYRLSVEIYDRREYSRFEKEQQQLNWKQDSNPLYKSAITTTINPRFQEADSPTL
Sequence of α4β1 integrin (P13612 34-1032): as the sequence (P13612 34-1032) above
Sequence of α4β1 integrin (P05556 21-798): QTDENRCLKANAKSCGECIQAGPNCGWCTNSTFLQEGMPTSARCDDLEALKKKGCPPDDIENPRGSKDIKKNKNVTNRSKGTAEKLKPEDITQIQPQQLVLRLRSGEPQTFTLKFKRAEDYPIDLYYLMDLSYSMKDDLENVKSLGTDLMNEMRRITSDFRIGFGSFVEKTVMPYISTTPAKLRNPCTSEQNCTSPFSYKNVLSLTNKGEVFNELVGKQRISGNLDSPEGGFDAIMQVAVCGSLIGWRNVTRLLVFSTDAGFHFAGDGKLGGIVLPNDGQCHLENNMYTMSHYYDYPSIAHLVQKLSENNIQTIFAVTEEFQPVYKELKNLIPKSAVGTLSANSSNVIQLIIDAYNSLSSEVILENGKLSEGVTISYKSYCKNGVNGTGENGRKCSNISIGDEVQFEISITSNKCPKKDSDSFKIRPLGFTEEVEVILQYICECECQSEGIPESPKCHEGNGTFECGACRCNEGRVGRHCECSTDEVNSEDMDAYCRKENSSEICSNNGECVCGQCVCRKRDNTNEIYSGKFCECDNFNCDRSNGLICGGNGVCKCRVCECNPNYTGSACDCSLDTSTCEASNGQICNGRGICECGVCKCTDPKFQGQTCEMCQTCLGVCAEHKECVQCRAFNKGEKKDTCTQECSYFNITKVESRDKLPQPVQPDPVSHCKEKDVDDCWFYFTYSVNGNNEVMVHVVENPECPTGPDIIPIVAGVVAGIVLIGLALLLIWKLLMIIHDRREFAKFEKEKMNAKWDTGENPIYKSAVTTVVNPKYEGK

Regarding `Cn1ccc(C(F)(F)F)c(-c2nccc3c(C[C@H](NC(=O)c4c(Cl)cc(N5CCOC[C@@H]5C(F)(F)F)cc4CN4CCOCC4)C(=O)O)cccc23)c1=O` [Compound 225], the pIC50 in assay [1] was under 6.00; in assay [2] it was over 8.00.
As to `Cn1ccc(C(F)(F)F)c(-c2nccc3c(C[C@H](NC(=O)c4c(F)cc(N5CCOC[C@@H]5C(F)(F)F)cc4CN4CCC(F)(F)CC4)C(=O)O)cccc23)c1=O` [Compound 226], the negative-log IC50 (pIC50) was under 6.00 in assay [1] and over 8.00 in assay [2].
Turning to `Cn1ccc(C(F)(F)F)c(-c2nccc3c(C[C@H](NC(=O)c4c(CN5CCOCC5)cc(N5CCOC[C@@H]5C(F)(F)F)cc4C(F)(F)F)C(=O)O)cccc23)c1=O` [Compound 227], the pIC50 in assay [1] and in assay [2] was under 6.00 throughout.
With `Cn1ccc(C(F)(F)F)c(-c2nccc3c(C[C@H](NC(=O)c4cc(F)cc(CSc5ccccc5)c4)C(=O)O)cccc23)c1=O` [Compound 229], the negative logarithm of the IC50 (pIC50) in assay [1] and in assay [2] was under 6.00 each time.
Turning to `Cn1ccc(C(F)(F)F)c(-c2nccc3c(C[C@H](NC(=O)c4c(F)cc(N5CCOC[C@@H]5C(F)(F)F)cc4CN4CCOCC4)C(=O)O)cccc23)c1=O` [Compound 245], the pIC50 in assay [1] was under 6.00; in assay [2] it was over 8.00.
For `Cn1ccc(C(F)(F)F)c(-c2nccc3c(C[C@H](NC(=O)c4c(F)cc(CN5CCOCC5)cc4F)C(=O)O)cccc23)c1=O` [Compound 246] the same measures were under 6.00 and 6.00 to 7.00.
On to `CN1CCN(Cc2cc(N3CCOC[C@@H]3C(F)(F)F)cc(F)c2C(=O)N[C@@H](Cc2cccc3c(-c4c(C(F)(F)F)ccn(C)c4=O)nccc23)C(=O)O)CC1` [Compound 248], for which the pIC50 was under 6.00 in assay [1] and over 8.00 in assay [2].
In the case of `CN1CCN(c2cc(F)c(C(=O)N[C@@H](Cc3cccc4c(-c5c(C(F)(F)F)ccn(C)c5=O)nccc34)C(=O)O)c(F)c2)[C@@H](C(F)(F)F)C1` [Compound 249], the pIC50 in assay [1] was under 6.00; in assay [2] it was 7.00 to 8.00.
`Cn1ccc(C(F)(F)F)c(-c2nccc3c(C[C@H](NC(=O)c4c(F)cc(N5CCOC[C@@H]5C5CC5)cc4F)C(=O)O)cccc23)c1=O` [Compound 251]: the pIC50 in assay [1] was under 6.00; in assay [2], over 8.00.
The matching figures for `Cn1ccc(C(F)(F)F)c(-c2nccc3c(C[C@H](NC(=O)c4c(F)cc(N(CC(F)(F)F)CC(F)(F)F)cc4CN4CCCC4)C(=O)O)cccc23)c1=O` [Compound 252]: under 6.00 and over 8.00.
`Cn1ccc(C(F)(F)F)c(-c2nccc3c(C[C@H](NC(=O)c4c(F)cc(N5CCOC[C@@H]5C(F)(F)F)cc4CN4CCCC4)C(=O)O)cccc23)c1=O` [Compound 253]: the pIC50 in assay [1] is under 6.00; in assay [2], over 8.00.
As to `Cn1ccc(C(F)(F)F)c(-c2nccc3c(C[C@H](NC(=O)c4c(F)cc(NCC(F)(F)F)cc4CN4CCCC4)C(=O)O)cccc23)c1=O` [Compound 254], the negative logarithm of the IC50 (pIC50) in assay [1] was under 6.00; in assay [2], over 8.00.
Turning to `O=C(N[C@@H](Cc1cccc2c(-c3cccc4ccncc34)nccc12)C(=O)O)c1c(F)cc(N2CCOC[C@@H]2C(F)(F)F)cc1CN1CCCC1` [Compound 255], the figures for the pIC50 in assay [1] and in assay [2] were 6.00 to 7.00 and over 8.00, respectively.
With `O=C(N[C@@H](Cc1cccc2c(-c3cccc4ccncc34)nccc12)C(=O)O)c1c(F)cc(NCC(F)(F)F)cc1CN1CCCC1` [Compound 256], the pIC50 in assay [1] is under 6.00; in assay [2], 7.00 to 8.00.
For `Cn1ccc(C(F)(F)F)c(-c2nccc3c(C[C@H](NC(=O)c4c(F)cc(N5CCOC[C@H]5C5CC5)cc4F)C(=O)O)cccc23)c1=O` [Compound 257], the figures for the pIC50 in assay [1] and in assay [2] were under 6.00 and 7.00 to 8.00, respectively.
For `Cn1ccc(C(F)(F)F)c(-c2nccc3c(C[C@H](NC(=O)c4c(F)cccc4C(F)(F)F)C(=O)O)cccc23)c1=O` [Compound 258], the negative-log IC50 (pIC50) in assay [1] is under 6.00; in assay [2], 6.00 to 7.00.
Consider `CCOCc1cc(OC)c(-c2nccc3c(C[C@H](NC(=O)c4c(F)cc(N5CCOC[C@@H]5C(F)(F)F)cc4F)C(=O)O)cccc23)c(OC)c1` [Compound 259], for which the results for the pIC50 in assay [1] and in assay [2] were 6.00 to 7.00 and over 8.00, respectively.
The matching figures for `CCOCc1cc(OC)c(-c2nccc3c(C[C@H](NC(=O)c4c(F)cccc4F)C(=O)O)cccc23)c(OC)c1` [Compound 260]: 6.00 to 7.00 and 7.00 to 8.00.
Take vedolizumab [ENTYVIO]: the “patients receiving ENTYVIO achieved remission” value in assay [3] is given as “approximately 30%”.
